Source: PubChem BioAssay AID449762 (Southern Research Specialized Biocontainment Screening …, 2010)
Records with an inconclusive call do not appear. Where a SMILES comes first, the peptide text is derived from it. [ ]: non-standard residue; d: D form. The star is where a group is joined. ξ: configuration not given here. ξF = NC(Cc1ccccc1)C(=O)O; Cbz = O=C(OCc1ccccc1)*

Test system: M. tuberculosis H37Rv growth inhibition, 7H9 media
Assay: M. tuberculosis growth inhibition, HTS (AID 449762);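 also: bacterial growth assessed after seven days of incubation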
Settings: for IC90: measured here: IC90 growth inhibition

Compound	IC50	IC90
CCOC(=O)CSc1nc(C)c(C(=O)OCC)s1	3.62 µM	9.29 µM
Cc1ncsc1CCOC(=O)c1ccc([N+](=O)[O-])cc1	8.11 µM	> 100 µM
CN1CCN(c2cc(-c3ccccc3)nc3cc(-c4ccc(F)cc4)nn23)CC1	11.4 µM	15.7 µM
CN(C)CCCNC(=O)c1ccc(-c2nc(-c3ccc(Cl)cc3)cs2)cc1	27.8 µM	42.3 µM
CCOC(=O)CN[C@H]1CCC2C3CC=C4C[C@@H](O)CC[C@]4(C)C3CC[C@@]21C (stereo not given in full)	1.41 µM	8.37 µM
Cc1cccc(/C=C/c2onc(C)c2[N+](=O)[O-])n1	10.9 µM	19.1 µM
Nc1cc(C(=O)OCC(=O)NNC(=O)c2cccs2)ccc1Cl	64.2 µM	> 100 µM
CC(C)(C)C1CCc2nc(NC(=O)Cc3cn4ccsc4n3)sc2C1 (stereo not given)	15.5 µM	39.6 µM
O=C(Oc1c(Cl)cc(Cl)c2cccnc12)c1cccs1	0.89 µM	1.24 µM
Oc1cc(Nc2ccccc2)cc2cccnc12	13.8 µM	26.6 µM
COc1cccc(-n2nnc3c(=O)n(CC(=O)N4CCC(Cc5ccccc5)CC4)cnc32)c1	23.2 µM	36.7 µM
S=c1nc[nH]c2nc[nH]c12	3.08 µM	3.43 µM
CCOC(=O)c1cnc2ccc(OCC)cc2c1N1CCN(c2ccccc2)CC1	27.1 µM	> 100 µM
CNc1ccccc1C(=O)OC(C)C(=O)Nc1ccc(Cl)cn1 (stereo not given)	28.2 µM	51.3 µM
CCCNc1nc(-c2cc(C(=O)Nc3ccccc3)on2)cc(C(C)C)n1	35 µM	59.3 µM
CCOC(=O)c1ccc(-n2c(CCC(=O)O)ccc2-c2cccs2)cc1	9.13 µM	14 µM
Cn1ncnc2c(=O)n(C)c(=O)nc1-2	1.66 µM	2.62 µM
COCCOC(=O)c1ccc(NC(=O)COc2ccc([N+](=O)[O-])cc2)cc1	83 µM	> 100 µM
C=CCOc1c(Br)cc(CNc2nccs2)cc1OC	22.3 µM	40.9 µM
Cc1ccc(-c2csc(N3CCN(CCCn4c(-c5ccncc5)nc5ccccc54)CC3)n2)cc1	23.4 µM	26.5 µM
CC(C)(C)c1ccc(Cn2nnc3c(=O)[nH]c(C4CCCN(C(=O)Cc5cccs5)C4)nc32)cc1 (stereo not given)	35.2 µM	47.8 µM
Cc1cnc(NC(=O)NCC2CCCC(CNC(=O)Nc3ncc(C)s3)C2)s1 (stereo not given)	24.8 µM	28.2 µM

Compound	IC50	IC90
O=C(CCN1C(=O)/C(=C/c2ccccc2)SC1=S)Nc1ccccn1	89.9 µM	> 100 µM
O=C(CSc1nnc(-c2cccs2)o1)NCC1CN(Cc2ccccc2)CCO1 (stereo not given)	5.22 µM	15.2 µM
Cc1cccc2c1-c1sc(C(=O)Nc3ccccc3N3CCN(C)CC3)cc1CO2	17.9 µM	25.1 µM
COc1ccc(N2CCN(C(=O)c3ccc(CNc4c(N5CCOCC5)c(=O)c4=O)cc3)CC2)cc1	2.42 µM	5.17 µM
Cc1cc(-c2c(C)[nH]n(-c3ccccc3)c2=O)n[nH]1	5.54 µM	25.5 µM
COc1cc(/C=C(\C#N)c2nc3c(s2)CC(C)CC3)ccc1O (stereo not given)	31.5 µM	63.5 µM
N#CC(C#N)=C(N)CSc1cccc[n+]1[O-]	6.25 µM	11 µM
Cc1ccc(C(C)C)c(OCC(=O)OCc2c(C)noc2C)c1	2.86 µM	3.29 µM
CC1CCc2c(sc3ncnc(NCCCOC(C)C)c23)C1 (stereo not given)	53.2 µM	67.1 µM
CNc1ccc2oc(C[C@H]3O[C@@]4(CC[C@H]3C)O[C@H]([C@H](C)C(=O)c3ccc[nH]3)[C@H](C)C[C@H]4C)nc2c1C(=O)O	1.1 µM	1.97 µM
Cc1ccc(S(=O)(=O)N(C)c2ccc(OCC(=O)OCc3ccc(C#N)cc3)cc2)cc1	8.71 µM	13.8 µM
COc1ccc(N=c2ssnc2Cl)cc1	38.9 µM	> 100 µM
CCOc1ncccc1C(=O)OCC(=O)N1CCc2ccccc21	6.15 µM	15.4 µM
COc1ccc(NCc2nc3ccccc3n2CCOc2ccccc2)cc1	44.8 µM	50.6 µM
Clc1ccc(C(Cn2ccnc2)OCc2csc3c(Cl)cccc23)c(Cl)c1 (stereo not given)	15.8 µM	24.8 µM
C/C(=N\Nc1nc2c(s1)CCCC2)c1ccccc1	18.6 µM	34.4 µM
O=C(Nc1cccc(-c2csc(Nc3ccc(Cl)cc3)n2)c1)c1cccc(C(F)(F)F)c1	27 µM	> 100 µM
CCN(CC)S(=O)(=O)c1ccc(/C=C/C(=O)OCC#N)cc1	6.59 µM	39.6 µM
Cc1ccc2nc(/C(C#N)=C/c3cn[nH]c3-c3ccc(F)cc3)[nH]c2c1	20.9 µM	> 100 µM
CCOC(=O)COc1ccc(C2CC(C)=NN2c2ccccc2)cc1 (stereo not given)	2.81 µM	17.7 µM
CCOc1ccc(-c2csc(/C(C#N)=C\c3ccc(O)c([N+](=O)[O-])c3)n2)cc1	11.1 µM	> 100 µM
O=C1CCCC2=C1C1c3ccccc3C(=O)N1c1ccc(C(=O)c3ccccc3)cc1N2 (stereo not given)	16 µM	21.9 µM

Compound	IC50	IC90
O=[N+]([O-])c1ccc(C2Oc3ccccc3C3CC(c4ccccc4)=NN32)s1 (stereo not given)	6.12 µM	6.95 µM
CCCn1c(N2CCN(Cc3ccc(Cl)cc3)CC2)nc2ccccc21	11.3 µM	23.5 µM
CC(=O)O[C@H]1C[C@@]2(C)[C@@H](C[C@@H](O)[C@H]3[C@@]4(C)CC[C@@H](O)[C@@H](C)[C@@H]4CC[C@@]32C)/C1=C(\CCC=C(C)C)C(=O)O	1.6 µM	4.42 µM
CC1(C)Cc2c(cnn2-c2ccccc2)-c2c1c1ccccc1n2CC(O)CCl (stereo not given)	88.2 µM	> 100 µM
CCCCOC(=O)CCN1C(=O)/C(=C2\SC(=S)N(CCC(=O)OCCCC)C2=O)SC1=S	2.98 µM	6.96 µM
CNc1ncnc2c1ncn2[C@@H]1O[C@H](CO)[C@@H](O)[C@H]1O	2.68 µM	5.73 µM
COc1ccc(Cl)cc1C(=O)O/N=C(\N)c1ccccn1	25.4 µM	> 100 µM
COc1cccc(CC2(CO)CCCN(Cc3[nH]c4ccc(C)cc4c3C)C2)c1 (stereo not given)	44 µM	50.4 µM
CN(C)CCCN1c2ccccc2Sc2ccc(Cl)cc21	51.6 µM	59 µM
CCOc1ccc2nc(/N=C/c3nc(-c4ccccc4)oc3O)sc2c1		> 100 µM
CCOC(=O)CNC(=O)C(Cc1ccccc1)NC(=O)OCc1ccccc1 (stereo not given) (Cbz-[ξF]-Gly-OEt)	2.22 µM	3.36 µM
Clc1cc(Cl)cc(Nc2ncn[nH]2)c1	24.1 µM	> 100 µM
CN1/C(=C\C(=O)C[n+]2ccc(C(=O)c3ccccc3)cc2)C(C)(C)c2ccccc21	7.85 µM	15.3 µM
Cc1ccccc1N1CCN(C(=O)c2ccc(Oc3ccc(C(F)(F)F)cn3)cc2)CC1	24.4 µM	60.5 µM
O=Nc1c2nc3ccccc3n(O)c-2c2ccccc12	10.7 µM	15.7 µM
Cc1csc(NC(=S)Nc2cccc(Cl)c2)n1	2.76 µM	6.01 µM
O=C(C1=C[C@@H](c2csc3ccccc23)C[C@@H](OCCCCO)O1)N1CCN(Cc2ccc3c(c2)OCO3)CC1	28.5 µM	47.8 µM
Cc1ccc(-c2cc(-c3ccccc3C)[nH]n2)c(O)c1	22.2 µM	> 100 µM
Oc1c(C(c2ccccc2Cl)N2CCCC2)ccc2cccnc12 (stereo not given)	14.1 µM	31.1 µM
Cc1ccc(NC(=O)CNCc2cccs2)cc1Br	99.6 µM	> 100 µM
CCCCNC(=S)Nc1ccc2cn[nH]c2c1	11.2 µM	21.3 µM
CCOC(=O)CSc1nnc(NC(=O)c2ccc3c(c2)OCO3)s1	5.67 µM	42.3 µM

Compound	IC50	IC90
O=S1(=O)CCC(N=Cc2ccc(-c3ccc(Cl)cc3)o2)C1 (stereo not given)	54.8 µM	> 100 µM
Cc1ccc(NC(=O)c2cnc(SCC(=O)NCC3CCCO3)n(C)c2=O)cc1C (stereo not given)	9.73 µM	35.1 µM
O=C(Nc1ccc(Cl)cc1)N(C1=NCCC1)c1ccc(OC(F)F)cc1	35 µM	70.9 µM
COc1ccc(-n2nc3c(c2NC(=O)CCl)CSC3)cc1	4.85 µM	9.39 µM
NC(=O)c1ccc(N=Cc2ccc([N+](=O)[O-])s2)cc1	12.6 µM	13.6 µM
COc1ccc2[nH]c3c(C)c4ccncc4c(C)c3c2c1	0.89 µM	2.68 µM
Cc1[nH]c2ccc(OC(F)(F)F)cc2c1CCNCc1ccc(Cl)cc1	10.9 µM	19 µM
COc1ccc(-c2cc3ccccc3oc2=O)cc1NC(=O)c1ccc([N+](=O)[O-])o1	0.37 µM	> 100 µM
C(=N\Nc1ccc2ccccc2n1)/c1ccc2c(c1)OCCO2	2.77 µM	4.03 µM
Cc1ccc(C(=O)O/N=C\c2ccc(N3CCCCC3)c([N+](=O)[O-])c2)cc1	22.1 µM	49 µM
COC(=O)CC(=O)N1CCN(c2ccc(Cl)c(Cl)c2)CC1	20 µM	55 µM
CCOC(=O)CSc1nnc(-c2ccc(S(=O)(=O)NCc3cccs3)cc2)o1	2.55 µM	4.55 µM
O=C(CN1CCN(C(=O)COc2cccc(F)c2)CC1)Nc1ccc(Cl)c(C(F)(F)F)c1	49 µM	55.4 µM
Cc1nc(-c2nc(-c3c(C(=O)NNC(=O)c4ccc(Cl)cc4)noc3C)cs2)cs1	7.57 µM	18.2 µM
COCc1cc(=O)[nH]c(Nc2nc3ccccc3o2)n1	1.6 µM	7.06 µM
CC(=O)c1cccc2c(O)c(C3=Nc4ccccc4C3=O)[nH]c12	11.7 µM	13.2 µM
Cc1cc(C(=O)CCl)c(C)n1-c1cccc([N+](=O)[O-])c1	< 0.2 µM	1.54 µM
O=C1CC(/C=C/c2ccc(Cl)cc2)=Nc2ccccc2N1	12.1 µM	14.1 µM
O=C(CSc1nc2ncc(Br)cc2[nH]1)Nc1ccc2c(c1)OCO2	6.01 µM	16.1 µM
O=C(CN1CCN(c2nc(-c3ccc(F)cc3)cs2)CC1)NCc1ccc2c(c1)OCO2	42.6 µM	55.8 µM
O=C(/C=C/c1cccnc1)c1cccc(O)c1	6.48 µM	14.8 µM
O=C(Cc1ccc(Nc2nc3ccc(Br)cc3[nH]2)cc1)NCCc1cccs1	23.5 µM	31.2 µM
